Among the data in ChEMBL document CHEMBL3046559, “Sterile oat (Avena sterilis L.) cross-resistance profile to ACCase-inhibiting herbicides in Greece” (2012) are Ratio, Survival and GR50 values, retold here.

Common to all, as to format: functional
Assay [1] concerns Avena sterilis. The experiment in a line: Resistance index, ratio of GR50 for Avena sterilis accession P12 to GR50 for Avena sterilis accession P10S.
The test system of assay [2] is Avena sterilis. The experiment in a line: Herbicidal activity against Avena sterilis accession P12 assessed as weed survival at 16 times field recommended herbicide dose.
In assay [3] the test system is Avena sterilis. The experiment in a line: Resistance index, ratio of GR50 for Avena sterilis accession P19S to GR50 for Avena sterilis accession P10S.
The test system of assay [4] is Avena sterilis. The experiment in a line: Resistance index, ratio of GR50 for Avena sterilis accession P05 to GR50 for Avena sterilis accession P10S.
Assay [5] deals with Avena sterilis. The experiment in a line: Resistance index, ratio of GR50 for Avena sterilis accession P04 to GR50 for Avena sterilis accession P10S.
For assay [6], the system named is Avena sterilis. The experiment in a line: Resistance index, ratio of GR50 for Avena sterilis accession P11 to GR50 for Avena sterilis accession P10S.
Assay [7] relates to Avena sterilis. The experiment in a line: Herbicidal activity against Avena sterilis accession P21S assessed as weed survival at 1/16 times field recommended herbicide dose.
Assay [8] has as its system Avena sterilis. The experiment in a line: Resistance index, ratio of GR50 for Avena sterilis accession P22 to GR50 for Avena sterilis accession P10S.
Assay [9] deals with Avena sterilis. The experiment in a line: Resistance index, ratio of GR50 for Avena sterilis accession P18 to GR50 for Avena sterilis accession P10S.
In assay [10] the test system is Avena sterilis. The experiment in a line: Resistance index, ratio of GR50 for Avena sterilis accession P17 to GR50 for Avena sterilis accession P10S.
Assay [11] has as its system Avena sterilis. The experiment in a line: Resistance index, ratio of GR50 for Avena sterilis accession P08 to GR50 for Avena sterilis accession P10S.
Assay [12] deals with Avena sterilis. The experiment in a line: Resistance index, ratio of GR50 for Avena sterilis accession P16 to GR50 for Avena sterilis accession P10S.
The subject of assay [13] is Avena sterilis. The experiment in a line: Herbicidal activity against Avena sterilis accession P07 assessed as weed survival at 32 times field recommended herbicide dose.
For assay [14], the system named is Avena sterilis. The experiment in a line: Resistance index, ratio of GR50 for Avena sterilis accession P02 to GR50 for Avena sterilis accession P10S.
The subject of assay [15] is Avena sterilis. The experiment in a line: Resistance index, ratio of GR50 for Avena sterilis accession P01 to GR50 for Avena sterilis accession P10S.
Assay [16] has as its system Avena sterilis. The experiment in a line: Resistance index, ratio of GR50 for Avena sterilis accession P20 to GR50 for Avena sterilis accession P10S.
Assay [17] concerns Avena sterilis. The experiment in a line: Resistance index, ratio of GR50 for Avena sterilis accession P14 to GR50 for Avena sterilis accession P10S.
Assay [18] deals with Avena sterilis. The experiment in a line: Resistance index, ratio of GR50 for Avena sterilis accession P03 to GR50 for Avena sterilis accession P10S.
Assay [19] concerns Avena sterilis. The experiment in a line: Resistance index, ratio of GR50 for Avena sterilis accession P13S to GR50 for Avena sterilis accession P10S.
Assay [20] has as its system Avena sterilis. The experiment in a line: Herbicidal activity against Avena sterilis accession P04 assessed as weed survival at 16 times field recommended herbicide dose.
Assay [21] relates to Avena sterilis. The experiment in a line: Resistance index, ratio of GR50 for Avena sterilis accession P09 to GR50 for Avena sterilis accession P10S.
For assay [22], the system named is Avena sterilis. The experiment in a line: Resistance index, ratio of GR50 for Avena sterilis accession P06S to GR50 for Avena sterilis accession P10S.
Assay [23] has as its system Avena sterilis. The experiment in a line: Herbicidal activity against Avena sterilis accession P10S assessed as weed survival at 1 times field recommended herbicide dose.
Assay [24] relates to Avena sterilis. The experiment in a line: Resistance index, ratio of GR50 for Avena sterilis accession P21S to GR50 for Avena sterilis accession P10S.
Assay [25] concerns Avena sterilis. The experiment in a line: Resistance index, ratio of GR50 for Avena sterilis accession P15 to GR50 for Avena sterilis accession P10S.
Assay [26] relates to Avena sterilis. The experiment in a line: Herbicidal activity against Avena sterilis accession P12 assessed as induction of weed mortality.
The test system of assay [27] is Avena sterilis. The experiment in a line: Resistance index, ratio of GR50 for Avena sterilis accession P07 to GR50 for Avena sterilis accession P10S.

Some results are limits rather than exact numbers.

As for `C#CCOC(=O)[C@@H](C)Oc1ccc(Oc2ncc(Cl)cc2F)cc1` [CLODINAFOP PROPARGYL], the Ratio is listed as above 164 in the assay on Avena sterilis [1]; 3.6 in the assay on Avena sterilis [3]; 22 in the assay on Avena sterilis [4]; above 164 with Avena sterilis [5]; above 164 in the assay on Avena sterilis [6]; 15 in the assay with Avena sterilis [8]. The Ratio with Avena sterilis [9] is recorded as 64; in the assay with Avena sterilis [10], 35; with Avena sterilis [11] it was above 164; in the assay on Avena sterilis [12], 21; with Avena sterilis [14], above 164; in the assay with Avena sterilis [15], 130. In addition, the Ratio with Avena sterilis [16] was 63; with Avena sterilis [17] it was 150; in the assay on Avena sterilis [18], above 164; in the assay with Avena sterilis [19], 0.6; in the assay on Avena sterilis [21], 6; with Avena sterilis [22], 1.1. Moreover, the Ratio in the assay with Avena sterilis [24] is recorded as 1.4; in the assay with Avena sterilis [25] it was above 164. The Survival with Avena sterilis [2] is reported as 83%; in the assay on Avena sterilis [7], 90%; in the assay on Avena sterilis [13], 0%; in the assay on Avena sterilis [20] it was 73%; in the assay on Avena sterilis [23] it was 0%. In the assay on Avena sterilis [26], the GR50 was above 1312 gAi/ha.
With `COC(=O)C(C)Oc1ccc(Oc2ccc(Cl)cc2Cl)cc1` (centres undefined) [DICLOFOP-METHYL], the Ratio with Avena sterilis [1] is recorded as above 50; in the assay with Avena sterilis [3], 0.9; in the assay on Avena sterilis [4] it was 10; with Avena sterilis [5], 28; in the assay on Avena sterilis [6], above 50; in the assay with Avena sterilis [8] it was 8. In addition, the Ratio is given as 20 in the assay with Avena sterilis [9]; 17 in the assay on Avena sterilis [10]; 22 with Avena sterilis [11]; 11 in the assay on Avena sterilis [12]; above 50 in the assay on Avena sterilis [14]; 43 in the assay on Avena sterilis [15]. For the same compound, the Ratio was above 50 with Avena sterilis [16]; 22 in the assay on Avena sterilis [17]; 7 with Avena sterilis [27]; 26 in the assay with Avena sterilis [18]; 1 in the assay with Avena sterilis [19]; 28 in the assay on Avena sterilis [21]. Further, the Ratio in the assay on Avena sterilis [22] is listed as 1.1; with Avena sterilis [24], 0.8; in the assay with Avena sterilis [25], above 50. The Survival in the assay on Avena sterilis [2] worked out at 63%; in the assay with Avena sterilis [7], 97%; in the assay with Avena sterilis [13] it was 20%; in the assay on Avena sterilis [20] it was 53%; with Avena sterilis [23], 33%. Moreover, the GR50 in the assay on Avena sterilis [26] was above 22740 gAi/ha.
On to `CCOC(=O)[C@@H](C)Oc1ccc(Oc2nc3ccc(Cl)cc3o2)cc1` [FENOXAPROP-P-ETHYL], for which the Ratio with Avena sterilis [1] is 83; in the assay on Avena sterilis [3], 1.9; in the assay on Avena sterilis [4] it was 12; in the assay on Avena sterilis [5], 59; with Avena sterilis [6] it was 145; in the assay with Avena sterilis [8], 16. The Ratio in the assay with Avena sterilis [9] was above 165; with Avena sterilis [10] it was 19; in the assay on Avena sterilis [11], 55; in the assay on Avena sterilis [12] it was 32; with Avena sterilis [14], 133; in the assay on Avena sterilis [15], 38. Further, the Ratio in the assay on Avena sterilis [16] is reported as above 165; with Avena sterilis [17], 10; in the assay on Avena sterilis [27] it was above 165; in the assay with Avena sterilis [18], 55; in the assay on Avena sterilis [19] it was 1.1; in the assay on Avena sterilis [21], 136. Moreover, the Ratio in the assay on Avena sterilis [22] was 1.1; in the assay on Avena sterilis [24], 1.2; with Avena sterilis [25] it was 92. For the same compound, the Survival is 50% in the assay on Avena sterilis [2]; 83% with Avena sterilis [7]; 70% in the assay with Avena sterilis [13]; 37% in the assay on Avena sterilis [20]; 0% with Avena sterilis [23]. Moreover, the GR50 with Avena sterilis [26] was found to be 1290 gAi/ha.
`COCc1cnc(C2=NC(C)(C(C)C)C(=O)N2)c(C(=O)O)c1` (centres undefined) [IMAZAMOX]: the Survival with Avena sterilis [2] was found to be 0%; in the assay with Avena sterilis [7], 97%; in the assay on Avena sterilis [13] it was 0%; with Avena sterilis [20], 0%; in the assay with Avena sterilis [23], 0%. For the same compound, the GR50 in the assay with Avena sterilis [26] is below 50 gAi/ha.
In the case of `CCc1cc(C)cc(CC)c1-c1c(OC(=O)C(C)(C)C)n2n(c1=O)CCOCC2` [PINOXADEN], the Survival in the assay on Avena sterilis [2] is listed as 0%; with Avena sterilis [7], 97%; with Avena sterilis [13] it was 0%; in the assay on Avena sterilis [20], 0%; with Avena sterilis [23] it was 0%. Also, the Ratio stood at 1.6 in the assay on Avena sterilis [3]; 18 in the assay on Avena sterilis [5]; 10 with Avena sterilis [16]; 1 in the assay with Avena sterilis [19]; 0.9 in the assay on Avena sterilis [22]; 1.4 in the assay with Avena sterilis [24]. Moreover, the GR50 with Avena sterilis [26] is given as below 40 gAi/ha.
Take `CCO/N=C(\CC)C1=C(O)CC(c2c(C)cc(C)cc2C)CC1=O` (centres undefined) [TRALKOXYDIM]: the Survival in the assay on Avena sterilis [2] is 0%; with Avena sterilis [7], 80%; in the assay with Avena sterilis [13], 0%; in the assay on Avena sterilis [20], 60%; in the assay on Avena sterilis [23], 0%. In addition, the Ratio came out at 0.4 in the assay with Avena sterilis [3]; 266 in the assay with Avena sterilis [5]; 15 in the assay with Avena sterilis [8]; 14 with Avena sterilis [10]; 27 with Avena sterilis [11]; 32 in the assay with Avena sterilis [12]. The Ratio with Avena sterilis [14] was found to be 38; in the assay on Avena sterilis [15], 27; in the assay with Avena sterilis [16], 102; in the assay on Avena sterilis [18], 55; in the assay with Avena sterilis [19], 1; in the assay on Avena sterilis [21] it was 19. Also, the figures for the Ratio in the assay on Avena sterilis [22], with Avena sterilis [24] and in the assay on Avena sterilis [25] were 1, 3 and 26, respectively. Moreover, in the assay on Avena sterilis [26], the GR50 was below 400 gAi/ha.
